The assay relates to rats. Kind of assay: Alternating Lever Cyclic Ratio (ALCR) test after ICV Aβ oligomers. It is filed as in vivo, rat. The method, then: The Aβ oligomers are naturally produced by cells transfected with genes that over-produce the amyloid precursor protein (APP). […] In addition, oligomeric Aβ is extracted from brain homogenate taken from transgenic mice (Tg2576) transfected with the Swedish APP mutation. […] These purified oligomeric forms of Aβ, at physiological concentrations relevant to those found in AD, are injected into the rat's lateral ventricle through an indwelling cannula while the animals are awake and moving. Two hours after injection the rats are tested under sensitive cognitive assay. The assay, the Alternating Lever Cyclic Ratio (ALCR) test, has proven to be much more sensitive than previously published methods for measuring drug effects on cognitive function. In this task, rats must learn a complex sequence of lever-pressing requirements in order to earn food reinforcement in a two-lever experimental chamber. Subjects must alternate between two levers by switching to the other lever after pressing the first lever enough to get food reward. The exact number of presses required for each food reward changes, first increasing from 2 responses per food pellet up to 56 presses per food pellet, then decreasing back to 2 responses per pellet. Intermediate values are based on the quadratic function, x^2−x. One cycle is an entire ascending and descending sequence of these lever press requirements (e.g., 2, 6, 12, 20, 30, 42, 56, 56, 42, 30, 20, 12, 6, and 2 presses per food reward). Six such full cycles are presented during each daily session. […] Oligomeric Aβ: […] These cells secrete oligomeric Aβ into the culture medium (CM) at physiological levels. Aβ oligomers was also derived from Tg2576 mouse brain and purified by size exclusion chromatography. Samples of oligomeric Aβ were characterized by Western Blot Analysis. Appropriate control compounds were produced and tested for each active Aβ oligomeric configuration. Rats: Forty (40) rats were trained under ALCR for approximately 3 months until their error rates are stable. Training sessions were conducted 5 days each week. Surgery: After training, all rats received a single 28 ga. cannula that was permanently affixed to the skull, and aimed at the lateral ventricle (divided equally between left and right). Rats were allowed 5 days to recover from surgery. Administration: In vivo administration of AZD103 to rats was performed by dissolving AZD103 into drinking water. Different concentrations were prepared, and the average daily water intake used to target specific average daily dose levels. These dose levels were therefore approximate. Testing: AZD 103 was tested against Aβ oligomers known to disrupt cognitive function. […] AZD 103 was incubated with the injectate medium containing Aβ oligomers prior to assessing it's affect on ALCR. […] Treatments were assessed in the following order: • 1. […] ICV AZD 103 alone • 3. […] Error Rate Analysis: All error rates under AZD 103 were compared to baseline error rates consisting of at least 3-4 non-treatment days prior to injections. This is a repeated measure within subject design that produces maximum power to detect changes in the error rates. Histology: Upon completion of the study, 20 rat brains were banked. The other 20 brains were evaluated histologically for inflammation, gliosis and cannula placement. […] Serial hematoxylin and eosin stained sections were used to evaluate for cannula placement. These same hemibrains were evaluated for inflammation (neutrophils/lymphocytes/macrophages), gliosis (microglial and astrocytic) and neuron loss using standard hematoxylin and eosin staining as well as specific markers for gliosis as needed.

Results on 1 compound are retold here after US20080306166A1, “Compositions and Methods For Treatment of Disorders of Protein Aggregation” (priority 2004, published 2008).

For the compound `OC1C(O)C(O)C(O)C(O)C1O` (stereo not drawn) [scyllo-cyclohexanehexyl, 1,3,5/2,4,6-(scyllo-) cyclohexanehexyl], the “impact on ALCR performance without oligomers” value (AZD103 administered without oligomers) is listed as “no impact on performance”. In addition, the Switching % errors is reported as 99% (ICV AZD103 alone, baseline = 100); 95% (ICV Aβ oligomers incubated ex vivo with AZD103, baseline = 100); 109% (ICV oligomers after 4 days PO 30 mg/kg/day in drinking water); 100% (ICV oligomers after 4 days PO 100 mg/kg/day in drinking water); 109% (ICV oligomers after 4 days PO 300 mg/kg/day in drinking water).
